One data set has as its system MDA NQ01. Kind of data set: IC50 by MTT assay on NQ01 cells. It is filed as cell-based, human. Background: Tetrazolium dyes change colour on reduction, which living cells bring about.
The subject of the next data set is MDA468 cells. Description: Combination index at IC50 with other anti-cancer agents in MDA468 cells. It is filed as cell-based, human.
The next data set has as its system porcine brain extracts. Kind of data set: Cleavage by porcine brain extracts. It is filed as in vitro ADME. The settings on record: in words; result of porcine esterase repeated. From the text: The cleavage of Es5 by esterase and cell extracts and its activation were investigated.
Another data set relates to MDA468NQ01. Description: DNA damage, Comet assay, MDA468NQ01 cells. The settings on record: 10 nM for 2 hrs, compared to H2O2 alone. It is filed as cell-based, human. The protocol:
DNA damage was measured using the Comet assay to investigate the effect of Es5 on the comet head and tail intensities following treatment of MDA468NQ01 and the DT-diaphorase null MDA468 cell lines. […] Without wishing to be bound by any particular theory, the inventors believe that this must arise by a different mechanism such as 2×one electron reductions, rather than the 2 electron reduction that occurs with DT-diaphorase.

Data set [1] can be described thus: physchem. The following applies: buffer, pH 7. It is filed as physicochemical.
The nature of data set [2]: physchem.

≈ marks a conversion by molar mass, not a printed value.

The term IC50 denotes the midpoint of a concentration-inhibition curve. Higher therefore signals weaker potency. A word on the half-life: it is how long it takes for the measured level to halve. As usually defined, the solubility is the concentration that dissolves in the medium under given conditions.

The compound `CC(=O)OCCCC1=C(N2CC2)C(=O)C(C)=C(N2CC2)C1=O` [Es5, Acetic Acid 3-(2,5-bis-aziridin-1-yl-4-methyl-3,6-dioxo-cyclohexa-1,4-dienyl)-propyl ester] came in with a concentration for half-maximal inhibition (IC50) with MDA NQ01 (Homo sapiens, MTT assay) of 0.23 nM. The “selectivity towards cells that express DT-diaphorase” value in the data set on MDA NQ01 (IC50 values, MTT assay) was “excellent selectivity”. For the same compound, in the data set on MDA NQ01 (ratio of IC50 values), the “MDA468 to NQ01 differential” value is greater than 80 fold. Also, the “Combination index at IC50 with ARC-C in MDA468 cells” value with MDA468 cells (with ARC-C) was 1.2 (slight. Also, in the data set on MDA468 cells, the “Combination index at IC50 with Cis-platinum in MDA468” value was “synergy”, the “Combination index at IC50 with Docetaxel in MDA468 cells” value is “moderately inhibitory effect”, the “Combination Index at IC50 with Mitomycin C in MDA468 cells” value is “slight antagonism” and the “Combination index at IC50 with cobalt chloride in MDA468 cells” value is recorded as “strong synergy”. Also, in the data set with MDA468 cells (listed as Es5 (4.65)), the “Combination index at IC50 with Cis-platinum in MDA468” value is on record as 0.567 (synergy), the “Combination index at IC50 with Docetaxel in MDA468 cells” value was 1.387 (moderately, the “Combination Index at IC50 with Mitomycin C in MDA468 cells” value is reported as 1.4 (slight and the “Combination index at IC50 with cobalt chloride in MDA468 cells” value was 0.464 (strong. Besides, the “Combination index at IC50 with Epirubicin in MDA468 cells” value with MDA468 cells (with Epirubicin) is recorded as 1.49 (antagonism). Moreover, the “cleavage by porcine brain extracts” value in the data set with porcine brain extracts is “rapidly cleaved”. Moreover, the “Comet assay head and tail intensities (DNA cross-linking)” value in the data set with MDA468NQ01 is given as “increased the proportion of DNA in the head”. In “physchem [1]”, this compound displayed a half-life at 50 μM greater than 24 h. In the data set “physchem [2]” (aqueous buffer), this compound came in with a solubility of 150 µg/mL (≈ 0.493 mM). Further, the solubility in the data set “physchem [2]” (organic solvent or mixture) came to 9400 µg/mL (≈ 30.9 mM).
